The subject of data set [1] is SH-SY5Y. Nature of the data set: Cytoprotective activity against H2O2-induced toxicity in human SH-SY5Y cells assessed as increase in cell viability at 1 uM preincubated for 24 hrs followed by H2O2 addition measured after 24 hrs by MTT assay relative to control. Format: functional.
For data set [2], the system named is SH-SY5Y. Nature of the data set: Cytoprotective activity against H2O2-induced toxicity in human SH-SY5Y cells assessed as increase in cell viability at 1 uM preincubated for 24 hrs followed by H2O2 addition measured after 24 hrs by MTT assay relative to PBN. Format: functional.
The test system of data set [3] is SH-SY5Y. The data set can be described thus: Toxicity in H2O2 stressed human SH-SY5Y cells assessed as effect on total glutathione level at 1 uM preincubated for 24 hrs followed by H2O2 addition measured after 24 hrs by spectrophotometric analysis. Format: cell-based.
Data set [4] concerns SH-SY5Y. The data set can be described thus: Cytoprotective activity against H2O2-induced apoptosis in human SH-SY5Y cells assessed as dead cells at 1 uM preincubated for 24 hrs followed by H2O2 addition measured after 24 hrs by annexin V-FITC/propidium iodide staining-based flow cytometric analysis (reference value: 25.81 +/- 3.57%). Format: functional. For orientation: A flow cytometer gives signals particle by particle.

For data set [5], the system named is SH-SY5Y. The data set can be described thus: Cytoprotective activity against H2O2-induced apoptosis in human SH-SY5Y cells assessed as viable cells at 1 uM preincubated for 24 hrs followed by H2O2 addition measured after 24 hrs by annexin V-FITC/propidium iodide staining-based flow cytometric analysis (reference value: 71.08 +/- 2.34%). Format: functional. The settings on record: read-out: Activity.

Data set [6] has as its system SH-SY5Y. Nature of the data set: Cytoprotective activity against H2O2 stressed human SH-SY5Y cells assessed as increase in glutathione level at 1 uM preincubated for 24 hrs followed by H2O2 addition measured after 24 hrs by spectrophotometric analysis. The data set is classed as functional.
The subject of data set [7] is SH-SY5Y. Nature of the data set: Cytoprotective activity against H2O2-induced oxidative stress in human SH-SY5Y cells at 1 uM preincubated for 24 hrs followed by H2O2 addition measured after 24 hrs by DCFHDA dye-based flow cytometric analysis. Format: functional, cell-based.
In data set [8] the test system is SH-SY5Y. The data set can be described thus: Cytoprotective activity against H2O2-induced apoptosis in human SH-SY5Y cells assessed as early apoptotic cells at 1 uM preincubated for 24 hrs followed by H2O2 addition measured after 24 hrs by annexin V-FITC/propidium iodide staining-based flow cytometric analysis relative to control. The data set is classed as functional.

In data set [9] the test system is SH-SY5Y. The data set can be described thus: Cytoprotective activity against H2O2-induced apoptosis in human SH-SY5Y cells assessed as late apoptotic cells at 1 uM preincubated for 24 hrs followed by H2O2 addition measured after 24 hrs by annexin V-FITC/propidium iodide staining-based flow cytometric analysis (reference value: 2.78 +/- 0.53%). Format: functional.

For data set [10], the system named is SH-SY5Y. Nature of the data set: Cytoprotective activity against H2O2-induced apoptosis in human SH-SY5Y cells assessed as early apoptotic cells at 100 nM preincubated for 24 hrs followed by H2O2 addition measured after 24 hrs by annexin V-FITC/propidium iodide staining-based flow cytometric analysis relative to control. The data set is classed as functional.

Data set [11] relates to SH-SY5Y. Nature of the data set: Cytoprotective activity against H2O2-induced apoptosis in human SH-SY5Y cells assessed as late apoptotic cells at 100 nM preincubated for 24 hrs followed by H2O2 addition measured after 24 hrs by annexin V-FITC/propidium iodide staining-based flow cytometric analysis (reference value: 2.78 +/- 0.53%). The data set is classed as functional.

Data set [12] has as its system SH-SY5Y. Nature of the data set: Cytoprotective activity against H2O2-induced apoptosis in human SH-SY5Y cells assessed as dead cells at 100 nM preincubated for 24 hrs followed by H2O2 addition measured after 24 hrs by annexin V-FITC/propidium iodide staining-based flow cytometric analysis (reference value: 25.81 +/- 3.57%). Format: functional.

Active and inactive are the calls of the source. No cut-off for these calls is given here.

`Cc1ccc(/[N+]([O-])=C/c2ccncc2)cc1C`: the Activity is 71% in [1] and 42% in data set [2].

As to `Cc1ccc(/[N+]([O-])=C/c2ccc3c(c2)OCO3)cc1C`, the values for the Activity in [1] and in data set [2] were 71% and 42%, respectively.

`[O-]/[N+](=C\c1ccccc1)c1ccccc1`: the Activity is listed as 71% in data set [1]; “Non-toxic” in [3]; 3.78% in [4]; 42% in data set [2]; 65% in [6]; 0% in data set [8]. For the same compound, the Activity in data set [9] is recorded as 1.56%. Moreover, the viability at 1 µM in data set [5] amounted to 85%. The outcome in [7] was Active.

Consider `[O-]/[N+](=C\c1ccncc1)c1ccc(Cl)cc1`, for which the Activity is 71% in [1] and 42% in [2].

`[O-]/[N+](=C\c1ccccc1)c1ccc(Cl)cc1`: the results for the Activity in data set [1] and in data set [2] were 71% and 42%, respectively.

In the case of `[O-]/[N+](=C\c1ccncc1)c1ccccc1`, the Activity is reported as 71% in data set [1] and 42% in data set [2].

Turning to `CN[C@@H]1C[C@H]2O[C@@](C)([C@@H]1OC)n1c3ccccc3c3c4c(c5c6ccccc6n2c5c31)C(=O)NC4` [STAUROSPORINE], the results for the Activity in data set [10], in [11] and in data set [12] were 2.63%, 14.49% and 6.19%, respectively.

As for `[O-]/[N+](=C\c1ccc2c(c1)OCO2)c1ccc(Cl)cc1`, the values for the Activity in data set [1] and in data set [2] were 71% and 42%, respectively.

For the compound `CC(C)(C)/[N+]([O-])=C\c1ccccc1`, the Activity in data set [4] is 9.42%; in data set [6] it was 65%; in [8], 0.03%; in data set [9], 2.4%. Further, the outcome in data set [7] was Active.

For the compound `[O-]/[N+](=C\c1ccc2c(c1)OCO2)c1ccccc1`, the Activity in [1] came to 71%; in data set [2], 42%.

As to `Cc1ccc(/[N+]([O-])=C/c2ccccc2)cc1C`, the Activity is 95% in data set [1]; “Non-toxic” in [3]; 9.13% in data set [4]; 42% in data set [2]; 65% in data set [6]; 0% in data set [8]. Besides, the Activity in data set [9] was 1.21%. For the same compound, in data set [5], the viability at 1 µM is 85%. Moreover, the result in data set [7] was Active.

The values are drawn from ChEMBL document CHEMBL3745698, “α-Aryl-N-aryl nitrones: Synthesis and screening of a new scaffold for cellular protection against an oxidative toxic stimulus” (Bioorg Med Chem, 2016).
